The record followed here is patent publication EP2402358A2, “2',3'-Didehydro-3'-deoxy-4'-ethynylothymidine derivatives for treatment infections caused by human immunodeficiency virus (HIV) multidrug resistant strains, method of their synthesis and pharmaceutically acceptable forms of drugs” (priority 2010, dated 2012).

SMILES strings stand for the structures. Bounds are passed on as bounds.

The term CC50 denotes the concentration at which the toxic effect on the cells reaches its halfway point. The term EC50 denotes the midpoint of the concentration-response curve. A higher EC50 goes with a less potent agent.

Data set [1] relates to HIV-1 virus strain Resistant 7005695. The following applies: Resistance factor Rf=EC50 mutant / EC50 wt virus. The text has this:
(§1) Determination of antiviral activity
(§2) Fully infectious virus HIV-1 was produced from cloned proviral DNA reference coding either for wild-type HIV-1 or from drug-resistant virus following transfection of proviral DNA into recipient mammalian cells. Subsequent to viral protein expression and particle formation, culture supernatant was harvested and used to infect an indicator cell line. This latter cell line expresses all necessary receptors and co-receptors for HIV infection as well as the bacterial gene LacZ coding for β-galactosidase under the control of the HIV-1 long terminal repeat. In this system, amount of β-galactosidase is directly proportional to the extent of viral replication. Activity of β-galactosidase is assayed in presence of a colorless substrate which upon enzymatic conversion yields a yellow product absorbing at 405 nm. Next, variation in colorimetric readout in presence of test compounds was translated in percent viral inhibition following normalization according to absorbance values of positive (presence of anti-HIV drug) and negative (untreated) control wells included in each 96 well-plate. […] Percent inhibition data in function of drug concentration were processed by a statistical curve fitting software yielding a modeled curve from which EC50 was extrapolated.
(§3) Resistance factor Rf=EC50 mutant / EC50 wt virus

Data set [2] has as its system HIV-1 virus strain Resistant QCR8. The following applies: Resistance factor Rf=EC50 mutant / EC50 wt virus.
From the text: as §1, §2, §3

Data set [3] can be described thus: Determination of cytotoxicity: Alamar Blue Cell Viability Assay. The format is cell-based. Conditions: deciphr cells. An excerpt:
(§4) Determination of cytotoxicity: Alamar Blue™ Cell Viability Assay
(§5) The Alamar Blue™ Cell Viability Assay (Invitrogen) is a fluorimetric metod for determining the number of viable cells. The Alamar Blue Reagent contains the cell permeable non-fluorescent blue dye resazurin, which is converted to the pink and fluorescent dye resorufin in response to the action of reductases located in the cytosol, mitochondria and endoplasmic reticulum. Therefore, only living cells will convert resazurin into resorufin. Assays are performed by adding 20 µL of the Alamar Blue Reagent directly to culture wells followed by a 6-hour incubation at 37°C. The fluorescent signal is monitored using 545 nm excitation wavelength and 590 nm emission wavelength. The quantity of resofurin product as measured by fluorescence is directly proportional to the number of living cells in culture, what allows to calculate CC50 value.
On the technique in general: The colour change of resazurin is a common sign of viable cells or microbes.

In data set [4] the test system is Wild type HIV-1 (NL4-3 cytotropic strain, CXCR4 - tropic). The data set is described as follows: Determination of antiviral activity (beta-galactosidase reporter indicator cell line, deClPhR cell system), wild type virus. In kind it is cell-based. Conditions: Human immunodeficiency virus 1, NL43.
From the text: as §1

Another data set deals with deClPhR™ cells. The experiment in a line: Determination of cytotoxicity: Alamar Blue Cell Viability Assay. In kind it is cell-based. Conditions: Cytotoxicity; PNL4-3; deClPhR™ cells.
From the text: as §4, §5

Consider `C#C[C@@]1(CO)C=C[C@H](n2cc(C)c(=O)[nH]c2=O)O1` [4'-E-d4T (WA32), 2',3'-didehydro-3'-deoxy-4'-ethynylothymidine], for which the “Rf*” value in data set [1] was found to be 17.3; in data set [2], 1.4. In addition, the CC50 in data set [3] (Cytotoxicity, PNL4-3, deClPhR™ cells) is > 200000 nM. Also, the half-maximal effective concentration (EC50) in data set [4] stood at 90 nM.

For the compound `C#C[C@@]1(COC(=O)CCCCCCCCCCCCC)C=C[C@H](n2cc(C)c(=O)[nH]c2=O)O1` [WA37, 1-(2,3-dideoxy-2,3-didehydro-4-ethynyl-5-O-tetradodecanoyl-bb-D-ribofuranosyl)-thymine], the results for the “Rf*” value in data set [1] and in data set [2] were 23.7 and 1.3, respectively. The CC50 (in data set [3] (cytotoxicity in deClPhR™ cells); in the data set on deClPhR™ cells) was > 200000 nM each time. A half-maximal effect in data set [4] (EC50) was put at 54 nM.

`C#C[C@@]1(COC(=O)CCCCCCCCCCCBr)C=C[C@H](n2cc(C)c(=O)[nH]c2=O)O1` [WA38, 1-(5-O-(12-bromododecanoyl)-2,3-dideoxy-2,3-didehydro-4-ethynyl-bb-D-ribofuranosyl)-thymine]: the “Rf*” value was 10.4 in data set [1] and 1 in data set [2]. Further, the CC50 (in data set [3] (cytotoxicity in deClPhR™ cells); in the data set with deClPhR™ cells) was > 200000 nM each time. In data set [4], this compound showed an EC50 of 130 nM.

Consider `C#C[C@@]1(COC(=O)CCCCCCCCCCCN=[N+]=[N-])C=C[C@H](n2cc(C)c(=O)[nH]c2=O)O1` [WA39, 1-(5-O-(12-azidododecanoyl)-2,3-dideoxy-2,3-didehydro-4-ethynyl-bb-D-ribofuranosyl)-thymine], for which the “Rf*” value in data set [1] is 12.2; in data set [2], 0.8. The cytotoxic concentration (CC50) (in data set [3] (cytotoxicity in deClPhR™ cells); in the data set with deClPhR™ cells) was > 200000 nM in each case. In addition, in data set [4], the EC50 came out at 73 nM.

Consider `C#C[C@@]1(COC(=O)CCCCCCCCCCCOC)C=C[C@H](n2cc(C)c(=O)[nH]c2=O)O1` [WA40, 1-(2,3-dideoxy-2,3-didehydro-4-ethynyl-5-O-(12-methoxydodecanoyl)-bb-D -ribofuranosy)-thymine], for which the “Rf*” value amounted to 17.4 in data set [1] and 2.3 in data set [2]. For the same compound, the half-maximal cytotoxic concentration (CC50) (in data set [3] (cytotoxicity in deClPhR™ cells); with deClPhR™ cells) was > 200000 nM in each case. For the same compound, in data set [4], the response was half-maximal at 48 nM (EC50).

With `C#C[C@@]1(COC(=O)CCCCCCCCCCSCC)C=C[C@H](n2cc(C)c(=O)[nH]c2=O)O1` [WA42], the “Rf*” value in data set [1] stood at 16.1; in data set [2] it was 2.3. Moreover, the CC50 (in data set [3] (cytotoxicity in deClPhR™ cells); in the data set with deClPhR™ cells) was > 200000 nM in each case. The compound also came in with an EC50 in data set [4] of 43 nM.
